Measured values published in patent publication US20080038809A1, “ISOLATED LECTIN POLYPEPTIDES CONSISTING OF TRUNCATED […] UDP-GalNAc:POLYPEPTIDE N- ACETYLGALACTOSAMINYLTRANSFERASES” (GLYCOZYM APS, priority 2002, published 2008).

Columns and labels:
[1] = system: GalNAc-T2 and -T4 secreted soluble enzymes as well as lectin domains; assay: Inhibition of GalNAc-transferase lectin binding to GalNAc-glycopeptides, statements on GalNAc-T2 and -T4 together; parameters: species or system human; details: enzymes and isolated lectins
Method: Direct binding ELISA assay was developed as follows: Polystyrene microtiter plates (Maxisorb, Nunc, Denmark) were coated with peptides or enzymatically glycosylated glycopeptides in PBS overnight at 4° C. Plates were washed and blocked with 0.1% Tween20 and 0.2% BSA in PBS for 1 h at room temperature, followed by incubation with biotinylated proteins in PBS with 0.05% Tween20 for 2 h at room temperature. After four washes with PBS, plates were incubated with 1:2,000 dilution streptavidin-HRP (Sigma) in PBS for 30 min at room temperature and washed four times with PBS. Development was performed with 0.5 mg/ml o-phenylenediamine and 0.02% H2O2 at room temperature for 15 min, and reaction stopped by adding 100 μl/well of 0.5 N H2SO4. Competitive inhibition assays were done at end-point titers of GalNAc-transferase proteins with one hour preincubations with inhibitor.
Lectins and antibodies to carbohydrates usually recognize the anomeric configuration of the sugar structures they bind.
Inhibition experiments were used to further define the binding specificity of GalNAc-T2 and -T4 secreted soluble enzymes as well as lectin domains compared to Helix Pomatia lectin (Table IV).

MUC5AC in HT29MTX cells = assay: Immuno-fluorescence staining of MUC5AC with CLH2 (FIG. 18); type: cell-based, human; details: 5 mM, continuous culture
Excerpt: FIG. 18 illustrates immuno-fluorescence staining of HT29MTX cells treated with inhibitors as indicated and stained with the anti-MUC5AC monoclonal antibody, CLH2.
In order to evaluate GalNAcβ-benzyl as an inhibitor of mucin glycosylation and secretion we used the cultured colon carcinoma cells of mucin secreting phenotypes: HT-29 metotrexate (MTX) cells selected from the HT-29 cell line by culture in the presence of MTX (kind gift from G. Huet, France). The HT-29 MTX cells were selected to yield a goblet cell like phenotype with constitutive production of MUC5AC. In order to ensure proper goblet cell differentiation the HT29MTX cell line were continuously grown up to 21 days in the presence of 5 mM GalNAcα-benzyl, 5 mM GalNAcβ-benzyl, 5 mM GlcNAcα-benzyl and without inhibitor using culture conditions as described in Hennebicq-Reig et al. (Permanent exposure of mucin-secreting HT-29 cells to benzyl-N-acetyl-alpha-D-galactosaminide induces abnormal O-glycosylation of mucins and inhibits constitutive and stimulated MUC5AC secretion. Biochem J. 1998; 334:283-95). At 7, 14 and 21 days of continuous culture, media was collected and cells were fixed in 3% paraformaldehyde and stained for the presence of MUC5AC and specific carbohydrate structures using immuno-histochemistry with the following monoclonal antibodies: CLH2 recognizing MUC5AC (Reis C. et al. Immunohistochemical study of MUC5AC expression in human gastric carcinomas using a novel monoclonal antibody. Int. J. Cancer. 1997; 74:112-21), 1E3 recognizing Tn (GalNAcα linked to serine or threonine), 3C9 recognizing T (Galβ1-3GalNAcα linked to serine or threonine, and 3F1 recognizing Sialyl-Tn (NeuAcα2-6GalNAcα linked to serine or threonine. […] Furthermore the viscosity of the media from cells with and without inhibitor was evaluated using viscosity micro-measurement.

[2] = system: cell surface expression of MUC1 in CHO1d1D/MUC1F-clone2 cells; assay: Cell surface expression of MUC1 by immunofluorescence; type: cell-based, Chinese hamster (CHO 1d1D cells); human MUC1; details: 1 mM, cells grown in GalNAc
Method: FIGS. 11A-D are a series of photomicrographs (left to right from top to bottom of) anti-MUC1 antibody immunofluorescence staining of CHO 1d1D cells stably transfected with a full coding cell surface MUC1 (CHO1d1D/MUC1F-clone2). Cell grown in the presence of GalNAc were treated with the O-glycosylation inhibitor GalNAcα-benzyl or control GlcNAcα-benzyl. Cells were grown in plates and stained without permeabilization as described in Example 4.
We therefore investigated the effect of treatment with GalNAcα-benzyl of CHO1d1D/MUC1F-clone2 cells grown in the presence of GalNAc. CHO1d1D/MUC1F-clone2 cells were seeded in 6 well plates at a density of 0.2×10^6 per well and were grown for 6 hours in Hams F12 medium with serum until approximately 30% subconfluent. […] After 18 hours, the medium was replaced with fresh Optimem containing the sugars and benzyl derivatives as above and grown for 12-48 hours. Initially we analyzed surface expression of MUC1 by immunocytology. Cells were washed once in PBS-CMF (phosphate buffered saline Calcium and Magnesium free) after carefully removing the medium from the wells and subsequently fixed in 2 ml 3% paraformaldehyde at 25° C. for 20 min followed by three washes with PBS-CMF 3 times. […]

[3] = system: secreted MUC1, wild type CHO/MUC1sol-cloneC4; assay: MUC1 secretion by western blot of medium; type: cell-based, Chinese hamster (CHO cells); human MUC1; details: 1-2 mM
Excerpt: Because GalNAcα-benzyl exerts separate effects on O-glycan processing and mucin expression, the use of the novel selective inhibitor of mucin expression, GalNAcβ-benzyl, allow analysis of mucin expression and secretion in different cell line models. Examples of human cell lines (available from ATCC, USA) expressing and secreting mucins are without limitations LS174T, HT29, Colo205, CALU, MCF7, T47D, NCI-H292, and A549. Most human adenocarcinoma cell lines express and secret mucins and analysis with antibodies to detect protein expression or probes to detect mRNA can reveal the types and quantities of mucins. […] This and other cell lines can be used to treat with 2 mM GalNAcβ-benzyl. In this Example we used wild type CHO/MUC1sol-cloneC4 and western blot analysis of medium of cells treated with 1-2 mM GalNAcα-benzyl, GalNAcβ-benzyl, or the control GlcNAcα-benzyl. […] The inhibitory effect on mucin secretion can be quantified by a number of assays known to the skilled in the art including western blot, ELISA, gelfiltration, immunocapture, and other assays.

Structure (SMILES)	inhibition of GalNAc-T2 and -T4 lectin mediated binding, in words [1]	intracellular staining of MUC5AC (MUC5AC in HT29MTX cells)	storage phenotype (MUC5AC in HT29MTX cells)	inhibition of cell surface expression of MUC1 [2]	inhibition of secreted MUC1 [3]
CC(=O)N[C@H]1[C@@H](OCc2ccccc2)O[C@H](CO)[C@H](O)[C@@H]1O [BzlαGalNAc, benzyl-N-acetyl-alpha-D-galactosaminide]	equal inhibition	increased intracellular staining	induced a storage phenotype	–	–
CC(=O)N[C@H]1[C@@H](OCc2ccccc2)O[C@H](CO)[C@H](O)[C@@H]1O [GalNAcα-benzyl, benzyl-N-acetyl-alpha-D-galactosaminide]	–	–	–	strong inhibition of cell surface expression of MUC1	inhibition of secreted MUC1
CC(=O)N[C@H]1[C@H](OCc2ccccc2)O[C@H](CO)[C@H](O)[C@@H]1O [GalNAcβ-benzyl]	equal inhibition	clearly diminished intracellular staining	did not lead to any storage disease	–	inhibition of secreted MUC1
CC(=O)N[C@H]1[C@@H](OCc2ccccc2)O[C@H](CO)[C@@H](O)[C@@H]1O [GlcNAcα-benzyl]	–	–	–	no inhibition	–
